Experimental data: patent US10766865B2, “PKM2 modulators and methods for their use” (TOLERO PHARMACEUTICALS, INC., priority 2012, dated 2020)

Key:
PKM2 [1] = biological target: T1, PKM2 (Homo sapiens, UniProt P14618); assay: Cell-Based Pyruvate Kinase Activity Assay, A549; set-up: host or cells: A549 or NCI-H1299 lung cancer cells; details: A549, 30 minutes with compound, n = 4; read-out: Cellular PKM2 activation EC50
Method: (§1) Cell-Based Pyruvate Kinase Activity Assay
(§2) A549 or NCI-H1299 lung cancer cells were plated at 20,000 cells per well (96-well plate) in MEM media plus 10% FBS, with no additional glutamine or pyruvate. Following overnight incubation, cells were washed with PBS followed by 4 hour incubation in MEM media. Compounds were added to the cells in 1% final concentration DMSO. After 30 minutes, cells were lysed, and pyruvate kinase activity in lysates was determined by Pyruvate Kinase Activity Assay (BioVision, Milpitas, Calif.). Maximum velocity values were calculated from the kinetic data, and AC50 values were determined using Prism GraphPad Software (La Jolla, Calif.). Compound washout experiments were as described above, except after a 30 minute incubation with Example 244 (469 nM), the cells were washed with PBS followed by the addition of MEM media for the indicated time period, lysed and pyruvate kinase activity determined. Results are tabulated in Table 3 and presented graphically in FIGS. 6A and 6B.
Target sequence in this assay (P14618 2-531 limits assumed): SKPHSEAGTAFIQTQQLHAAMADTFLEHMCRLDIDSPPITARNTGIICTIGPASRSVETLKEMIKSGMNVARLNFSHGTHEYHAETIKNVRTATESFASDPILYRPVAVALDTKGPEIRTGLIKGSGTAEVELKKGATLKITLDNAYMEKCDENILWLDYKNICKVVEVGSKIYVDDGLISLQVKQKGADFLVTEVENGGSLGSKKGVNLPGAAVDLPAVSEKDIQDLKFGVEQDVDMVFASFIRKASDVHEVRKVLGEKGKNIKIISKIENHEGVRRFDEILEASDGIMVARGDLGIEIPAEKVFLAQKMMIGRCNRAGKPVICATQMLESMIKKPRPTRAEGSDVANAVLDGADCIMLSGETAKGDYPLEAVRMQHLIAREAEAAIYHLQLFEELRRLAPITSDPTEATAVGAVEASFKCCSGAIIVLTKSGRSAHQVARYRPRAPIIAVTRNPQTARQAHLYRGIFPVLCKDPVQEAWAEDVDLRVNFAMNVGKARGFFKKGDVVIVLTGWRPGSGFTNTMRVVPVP

PKM2 [2] = biological target: T1, PKM2; assay: Cell-Based Pyruvate Kinase Activity Assay, NCI-H1299; set-up: host or cells: A549 or NCI-H1299 lung cancer cells; details: NCI-H1299, 30 minutes with compound, n = 4; read-out: Cellular PKM2 activation EC50
Method: as §1, §2
Target sequence in this assay (P14618 2-531 limits assumed): as above

PKM2 [3] = biological target: T1, PKM2; assay: PKM2 Biochemical Assay; details: for Max. Resp.: % maximum response in a biochemical assay as compared with Fructose 1,6-bisphosphate
Target sequence in this assay (P14618 whole entry): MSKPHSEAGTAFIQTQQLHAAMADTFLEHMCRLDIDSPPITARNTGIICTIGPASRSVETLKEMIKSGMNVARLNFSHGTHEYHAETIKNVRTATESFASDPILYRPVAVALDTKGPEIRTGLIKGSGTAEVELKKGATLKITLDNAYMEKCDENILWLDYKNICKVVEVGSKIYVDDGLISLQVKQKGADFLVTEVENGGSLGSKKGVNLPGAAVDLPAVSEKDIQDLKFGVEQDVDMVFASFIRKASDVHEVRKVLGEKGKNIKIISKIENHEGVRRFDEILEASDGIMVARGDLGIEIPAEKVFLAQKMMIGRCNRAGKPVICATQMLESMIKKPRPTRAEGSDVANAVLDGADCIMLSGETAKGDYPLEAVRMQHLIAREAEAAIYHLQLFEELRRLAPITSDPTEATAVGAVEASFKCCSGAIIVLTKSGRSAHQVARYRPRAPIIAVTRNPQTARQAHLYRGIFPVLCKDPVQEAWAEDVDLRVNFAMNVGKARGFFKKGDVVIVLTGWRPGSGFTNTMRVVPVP
Method: Full length, human PKM2 enzyme was obtained from Promab (Richmond, Calif.). All reagents, unless otherwise noted, were obtained from Sigma (St. Louis, Mo.).
Compounds were pre-incubated with 2 nM PKM2 in reaction buffer (50 mM Tris-HCl, pH 8.0, 200 mM KCl, 30 mM MgCl2, 2 mM DTT, 5% DMSO) for 30 min at ambient temperature. […] After 30 min, ATP formation was measured by Kinase Glo (Promega, Madison, Wis.), and AC50 values were determined using Prism (GraphPad Software, Inc., La Jolla, Calif.).

A549 cells = assay: Cell Proliferation Assay, A549; assay type: cell-based; details: Homo sapiens; A549, BME media lacking nonessential amino acids, 72 hours, ATPlite; read-out: Percent viability (EC50), Average
Method: (§3) Cells were seeded at 5000 cells per well (in 96-well plate) in BME media lacking nonessential amino acids+5% dialyzed serum. After 18 hours, DMSO or compound in 0.1% final concentration DMSO was added.
(§4) Percent viability (EC50) of A549 and PC3 cells was tested against certain exemplary compounds according to the above general procedures.

PC3 cells = assay: Cell Proliferation Assay, PC3; assay type: cell-based; details: Homo sapiens, PC-3; PC3, BME media lacking nonessential amino acids, 72 hours, ATPlite; read-out: Percent viability (EC50), Average
Method: as §3, §4

EC50 (PKM2 [1])	EC50 (PKM2 [2])	Emax (PKM2 [3]; read-out: % FBP (extent of maximal activation, relative to FBP))	AC50 (PKM2 [3]; read-out: AC50 (concentration of half-maximal PKM2 activation), Table 2, n = 6 to 10)	Maximal PKM2 activity (PKM2 [3]; relative to activity in DMSO controls (normalized to 100%), FIG. 1B)	EC50 (A549 cells)	EC50 (PC3 cells)	Max. Resp. (PKM2 [3])	Compound
450 ± 180 nM	300 ± 70 nM	107 ± 10%	62 ± 23 nM	approximately 600%				O=C(c1cc(Cl)n[nH]1)N(Cc1ccc(O)cc1F)CC1CCC1 [Example 244, N-(2-fluoro-4-hydroxybenzyl)-3-chloro-N-(cyclobutylmethyl)-1H-pyrazole-5-carboxamide]
					102 nM	193 nM	93%	CO[C@H]1CC[C@H](N(Cc2cccc(N)c2)C(=O)c2cc(C(F)(F)F)n[nH]2)CC1 [Example 54]
					188 nM	383 nM	89%	CO[C@H]1CC[C@H](N(Cc2ccccc2F)C(=O)c2cc(C(F)(F)F)n[nH]2)CC1 [Example 47, N-(2-FLUOROBENZYL)-N-(TRANS-4-METHOXYCYCLOHEXYL)-3-(TRIFLUOROMETHYL)-1H-PYRAZOLE-5-CARBOXAMIDE]
					928 nM	1310 nM	100%	O=C(c1cc(C(F)(F)F)n[nH]1)N(Cc1ccccc1Cl)CC1CCN1 (centres unmarked) [Example 227, N-(2-chlorobenzyl)-N-((azetidin-2-yl)methyl)-3-(trifluoromethyl)-1H-pyrazole-5-carboxamide]

Compound	EC50 (PKM2 [1])	EC50 (PKM2 [2])	Emax (PKM2 [3]; read-out: % FBP (extent of maximal activation, relative to FBP))	AC50 (PKM2 [3]; read-out: AC50 (concentration of half-maximal PKM2 activation), Table 2, n = 6 to 10)	Maximal PKM2 activity (PKM2 [3]; relative to activity in DMSO controls (normalized to 100%), FIG. 1B)	EC50 (A549 cells)	EC50 (PC3 cells)	Max. Resp. (PKM2 [3])
O=C(c1cc(C(F)(F)F)n[nH]1)N(CCC1CCS(=O)(=O)C1)Cc1ccccc1Cl (centres unmarked) [Example 62, N-(2-chlorobenzyl)-N-(2-(1,1-dioxidotetrahydrothiophen-3-yl)ethyl)-3-(trifluoromethyl)-1H-pyrazole-5-carboxamide]						108 nM	166 nM	105%
Nc1cccc(Cl)c1CN(CCN1CCCOCC1)C(=O)c1cc(C(F)(F)F)n[nH]1 [Example 239, N-(2-(1,4-oxazepan-4-yl)ethyl)-N-(2-amino-6-chlorobenzyl)-3-(trifluoromethyl)-1H-pyrazole-5-carboxamide]						73.1 nM	129 nM	100%
